Test results taken from patent US20070264241A1, “Compounds for Enhanced Cancer Therapy” (priority 2004, published 2007).
“Also recorded” adds a separate entry of the source.

Legend:
U87MG cells = assay: XTT cytotoxicity assay of phenylbutyrate and of nucleoside analogues with or without phenylbutyrate pre-incubation; assay type: cell-based, human; settings: 4-phenylbutyrate cytotoxicity assay, incubation 24 hours; read-out: IC50 U87MG (phenylbutyrate alone)
Experimental: Briefly, cells were harvested by trypsinzation, stained by Tryphan Blue for cell viability counting, seeded in triplicate in 96-well plates (1.000-2.000 cells/well) where after media conditioned with a fixed concentration of phenyl butyrate (3.16 mM) were added to the plates followed by incubation for 24 hours at 37° C. and 5% CO2. Cell proliferation/cytotoxicity was assessed by adding the colour generating substrates of the Cell Proliferation kit II (XTT) from Roche (Cat. No. 1465015) and measuring absorbance at 450 nm and 690 nm with a Thermo Labsystems Multiscan Ascent reader.
(§1) Cells were seeded at a density of 1.000-2.000 cells/well in 96-well plates. Cells were pre-incubated with 4-phenyl butyrate for 24 hours prior to drug exposure by adding media conditioned with phenyl butyrate at a fixed concentration (3.16 mM). Plated incubated for 24 hours (37° C., 5% CO2) where after media was discarded and replaced by media conditioned with various concentrations of nucleoside analogs (e.g. AZT), 200 μl/well. After 120 hours of drug exposure the experiments were terminated. Cell proliferation/cytotoxicity was assessed by adding the colour generating substrates of the Cell Proliferation kit II (XTT) from Roche (Cat. No. 1465015) and measuring absorbance at 450 nm and 690 nm with a Thermo Labsystems Multiscan Ascent reader.
The data was corrected for background media-only absorbance where after the 50% growth inhibitory concentration—IC50 (the dose that inhibits cell growth by 50%) was calculated for each treatment.
Briefly, cells were harvested by trypsinzation, stained by Tryphan Blue (Cambrex) for cell viability counting, seeded in triplicate in poly-L-lysine (PLL) (Sigma # P6282) coated 96-well plates (1.000-2.000 cells/well) where after media conditioned with a fixed concentration of phenyl butyrate (3.16 mM) was added to the plates followed by incubation for 24 hours at 37° C. and 5% CO2. Cell proliferation/cytotoxicity was assessed by adding the colour generating substrates of the
as §1, with “cells/well in PLL coated 96-well plates.” for “cells/well in 96-well plates.”, “of nucleoside analogs; AZT (Sigma # A2169), AraC (Sigma # C6645), Cladribine (CdA) (Sigma #C4438), Gancidovir (GCV) (Sigma # G2536) and Gemcitabine (Orifarm), 200 μl/well.” for “of nucleoside analogs (e.g. AZT), 200 μl/well.”, “Ascent reader. he data was corrected for background media-only absorbance where after the 50% growth inhibitory concentration—IC50 (the dose that inhibits cell growth by 50%) was calculated for ach treatment.” for “Ascent reader.”

[1] = system: Cx43 in human neural stem cells (HNSC.100); assay: Western blot analysis for Cx43 in neural stem cells; assay type: cell-based; settings: 0.5 mM 4-PB, up to 4 days
Experimental: Human neural stem cells (HNSC.100 cells, Villa et al Exp Neurol, 2000, 161(1):67-84) were obtained from Alberto Martinez Serrano, Department of Molecular Biology, Center of Molecular Biology Severo Ochoa, Autonomous University of Madrid-CSIC, Campus Cantoblanco, Madrid, 28049, Spain. Neural stem cells were grown to around 50% confluence and then 0.5 mM 4-PB treatment was started and continued for 4 days. Medium was replaced every 2nd day with fresh drug. Whole-cell lysates from three 100 mm petri dishes were solubilized in 100 μl of lysis buffer containing 250 mM Tris-HCl (pH 8.5), 2% SDS, 10% glycerol, 0.05 mM PMSF and protease inhibitor cocktail (Roche). Protein concentrations were quantified using the micro BSA protein assay kit (Pierce). Cell lysates were further mixed with loading buffer containing 1% β-mercaptoethanol, 0.02% bromophenol blue, and 0.1 M DTT. […] For quantification, films were scanned and analyzed with Image Gauge (Version 3.12, Fuji Photo Film Corp.). All results are expressed as means ± SE for the indicated number of experiments (FIG. 13). […] As the bands of protein became visible, the membranes were washed several times and total amount of loaded protein was quantified using computerized densitometric analysis.

[2] = system: GFAP and connexin 43 in S6 cells; assay: Western blot of GFAP and connexin 43 in S6 glioma cells after 4-PB; assay type: cell-based, Rat; settings: 2 mM 4-PB for 2 days
Experimental: Protein from S6 cells treated with 4-PB for 48 h was extracted and a Western blot analysis was performed. The intensity of the Cx43 specific signal was determined by imager and the activation of Cx43 was calculated. S6 cells not treated with 4-PB acted as reference.

4-phenylbutyrate [4-PB]
IC50 (U87MG cells): 4.14 mM | level of Cx43 protein (Western blot) [1]: increased; also recorded: upregulated | expression of GFAP [2]: increased expression | expression of connexin 43 [2]: increased expression
